Assay results published in patent US7132286B2, “Method for neural stem cell differentiation using valproate” (Psychiatric Genomics, Inc., priority 2001, dated 2006).
Entries after “also recorded” stand apart in the source; their conditions may differ.

Legend:
[1] = test system: human striatal stem cells (line 161); assay: Neuronal differentiation of human striatal stem cells (β tubulin III neurons, total cells); format: cell-based; settings: 9 days
Protocol: Expansion and differentiation of striatal human stem cells. Human stem cells were provided from ReNeuron Inc. (U.K.). Striatum was obtained after 6 to 12 weeks of gestation from routine legal abortion. Cell line was provided by ReNeuron at passage 16. The stem cells were expanded in untreated 25 cm^2 tissue culture flasks (Nunc, USA) in the presence of 20 ng/ml and 10 ng/ml of human recombinant EGF and bFGF respectively, in NSA basal serum-free medium (Euroclone, U.K). Fresh medium and growth factors were added every 3 days. In these conditions stem cells were growing as floating neurospheres. After 4 weeks, the neurospheres were harvested, treated with a mild papain treatment in HBSS and dissociated into a single cell suspension. Cells were counted and viability was estimated by trypan blue exclusion method. Cells were differentiated by growth factors removal. The cells were plated in NSA medium at 20,000 cells/well on LabTek permanox culture slides of 8 wells precoated with laminin (1 μg/ml). Cells were treated with valproate and BDNF for 9 days at 37° C. and a saturated humidified atmosphere of 5% CO2, 1% O2 and 94% N2. Fresh medium and re-treatment with factors was performed every 3 days.
(§1) Drug treatment. For immunofluorescence and Western analysis, cells were treated daily with either 0.5 mM of valproate (Sigma), 10 ng/ml of BDNF (R & D Systems), 20 ng/ml of NT-3 (R & D Systems), 1 nM 9cis retinoic acid (Sigma) or a dilution of NCM for 6 or 7 days. In some experiments valproate was also added with NCM and/or 9cis RA for 7 days. For human stem cell experiments, valproate (0.5 mM) or BDNF (25 ng/ml) was added for 9 days. For neurite outgrowth experiments, cells were treated for 1 day with 0.5 mM valproate or 50 ng/ml of BDNF. Where applicable, medium was changed every 2 days. After about 5–10 days, preferably on day 6 (i.e., after 6 days of drug exposure) the cells were fixed with a 4% solution of para-formaldehyde (PFA) in PBS, prepared as follows:
Immunofluorescent staining and visualization. Cells were plated at 20,000 cells/well in poly-L-ornithine/fibronectin (1 mg/ml) coated 24-well plates. […]
For counting, three to five different fields of interest at magnification 10× or 20× were chosen randomly. For immunofluorescence, 3 different black and white pictures were taken by field of interest with a digital camera CoolSnap Fx (Princeton) corresponding to the exposure of Cy2, Cy3 and Hoechst fluorescence. […] The percentage of neurons, astrocytes and GABAergic cells was determined by comparing the number of cells immunopositive for β-tubulin III, GFAP and GABA to the number of bis-benzamide stained nuclei (i.e., total cell number). […]

rat cortical stem cells = assay: Differentiation of rat cortical stem cells into GABA expressing cells (GABA immunocytochemistry); format: cell-based; settings: 6 days valproate vs control
Protocol: as §1, with “follows: Immunofluorescent staining and visualization. Cells were plated at 20,000 cells/well in poly-L-ornithine/fibronectin (1 mg/ml) coated 24-well plates. […] For immunofluorescence, 3 different black and white pictures were taken by field of interest with a digital camera CoolSnap Fx (Princeton) corresponding to the exposure of Cy2, Cy3 and Hoechst fluorescence. […] The percentage of neurons, astrocytes and GABAergic cells was determined by comparing the number of cells immunopositive for β-tubulin III, GFAP and GABA to the number of bis-benzamide stained nuclei (i.e., total cell number). […]” for “follows:”

β tubulin-III = assay: Western blot of β tubulin-III expression in rat cortical stem cells; format: cell-based; settings: valproate 1 day
[2] = literature; cited from earlier work

## CCCC(CCC)C(=O)O [valproate, 2-Propylpentanoic acid]
[1]
  effect on cell proliferation (cell density): without inhibiting cell proliferation
  effect on number of β tubulin III positive neurons / neuronal differentiation: increased the number of β tubulin III positive neurons compared to control and BDNF-treated cultures; also recorded: increases neuronal differentiation in human stem cell culture
[1]; 0.5 mM valproate, BDNF 25 ng/ml, untreated control 40%
  neuronal differentiation: 70%
Rat cortical stem cells
  number and percentage of cells immuno-positive for GABA: dramatic increase in the number; also recorded: increase in the number of GABA-positive neurons
β tubulin-III
  β-tubulin III expression by Western blot: increase of β-tubulin III expression; also recorded: increases β tubulin-III expression
[2]
  teratogenic activity: established human teratogen
